Source: patent publication US12544375B2, “Small molecule therapeutic for parkinson's disease paired with a biomarker of therapeutic activity” (The Board of Trustees of the Leland Stanford Junior …, priority 2019, dated 2026)

System: OPA1
Experiment: OPA1 level in fibroblasts, Western blotting
Assay type: cell-based, human
Settings: FIG. 2D
Method: FIG. 2A-FIG. 2F. Miro1 Reducer Eliminates the Miro1 Defect in PD Fibroblasts. (FIG. 2A) Chemical properties of Miro1 Reducer. (FIG. 2B) Wild-type flies (w^1118) were fed with DMSO alone (0 μM Miro1 Reducer) or Miro1 Reducer in DMSO at 250 μM for 7 days, and lysed and blotted as indicated. The band intensities are normalized to those of Tubulin from the same blots. n=4. (FIG. 2C-FIG. 2E) Fibroblasts were treated, lysed, and blotted as indicated. (FIG. 2C) Band intensities are normalized to those of GAPDH from the same blots and compared to “Healthy-1, no treatment” except otherwise indicated. n=4. (FIG. 2D) Band intensities are normalized to those of ATP5β from the same blots and expressed as a percentage of the mean of “0 μM Miro1 Reducer with CCCP”. Mean±S.E.M is shown. n=3. (FIG. 2E) Band intensities are normalized to those of GAPDH from the same blots and compared to “Healthy-1, no CCCP, no MG132” except otherwise indicated. n=4. (FIG. 2F) Healthy-1 and PD-2 fibroblasts were transfected as indicated, and immunostained with anti-Myc (Miro1, green) and stained with Dapi (blue). The Miro1 intensity is normalized to that of mito-dsRed from the same cell and quantified across 37-62 cells from 5 fields each transfection, 3 independent transfections. Scale bars: 50 μm. For (FIG. 2C-FIG. 2F), both CCCP and Miro1 Reducer were dissolved in DMSO. […]

O=C(Nc1ccc(Nc2cc(-n3ccnc3)ncn2)cc1)Nc1cccc(F)c1 [Miro1 Reducer]
IMM dynamin GTPase OPA1 level: not reduced
